The numbers were not newly measured in patent US6521028B1, “Low hazard corrosion inhibitors and cleaning solutions using quaternary ammonium salts” (HydroChem Industrial Services, Inc., priority 1996, dated 2003), which cites them from elsewhere.

Assay in data set [1]: not given
This is another data set of the same source.

In the case of `CC(C)O` [Isopropanol, isopropanol], the “amount fatal to humans” value was not below 100 mL.

Take `NC(N)=S` [thiourea]: in data set [1], the “LD50 (oral rats)” value is given as 125 mg/kg.

Regarding `COC(C)COC(C)CO` (stereo not drawn) [dipropylene glycol methyl ether], the “LD50 (oral rats)” value in data set [1] was 5130 mg/kg.
